In PubChem BioAssay AID1918936 (Molecular Pharmacology Branch, DTP, NCI, 2023):

System: 349418-098-R-PDC complex spheroid viability
Experiment: Anticancer human tumor 349418-098-R-PDC patient-derived lung adenocarcinoma cell line growth inhibition
Conditions: for IC50: curve of first compound; for viability, T/C: stronger effect = lower value
Method in brief: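 Multicellular complex spheroids of tumor cells with human endothelial cells (HUVEC) and mesenchymal stem cells; the LSD1 inhibitor iadademstat was combined with standard-of-care or investigational agents. Top concentration at or near clinical Cmax, half-log dilutions; final DMSO ≤0.25%.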

[1] = second compound 0.1 µM, first compound 0.00949 µM
[2] = second compound 0.1 µM, first compound 0.03 µM
[3] = second compound 0.1 µM, first compound 0.0949 µM
[4] = second compound 0.1 µM, first compound 0.3 µM
[5] = second compound 0.316 µM, first compound 0.00949 µM
[6] = second compound 0.316 µM, first compound 0.03 µM
[7] = second compound 0.316 µM, first compound 0.0949 µM
[8] = second compound 0.316 µM, first compound 0.3 µM
[9] = second compound 1 µM, first compound 0.00949 µM
[10] = second compound 1 µM, first compound 0.03 µM
[11] = second compound 1 µM, first compound 0.0949 µM
[12] = second compound 1 µM, first compound 0.3 µM
[13] = second compound 3.16 µM, first compound 0.00949 µM
[14] = second compound 3.16 µM, first compound 0.03 µM
[15] = second compound 3.16 µM, first compound 0.0949 µM
[16] = second compound 3.16 µM, first compound 0.3 µM
[17] = second compound 10 µM, first compound 0.00949 µM
[18] = second compound 10 µM, first compound 0.03 µM
[19] = second compound 10 µM, first compound 0.0949 µM
[20] = second compound 10 µM, first compound 0.3 µM
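Note: spheroids exposed to agents for seven days before readout.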
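Throughout, for viability, T/C: 100% = DMSO vehicle control wells.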

SMILES | IC50 (second compound 0.1 µM) [nM] | IC50 (second compound 0.316 µM) [nM] | IC50 (second compound 1 µM) [nM] | IC50 (second compound 3.16 µM) [nM] | IC50 (second compound 10 µM) [nM] | viability, T/C [1] [%] | viability, T/C [2] [%] | viability, T/C [3] [%] | viability, T/C [4] [%] | viability, T/C [5] [%] | viability, T/C [6] [%] | viability, T/C [7] [%] | viability, T/C [8] [%] | viability, T/C [9] [%] | viability, T/C [10] [%] | viability, T/C [11] [%] | viability, T/C [12] [%] | viability, T/C [13] [%] | viability, T/C [14] [%] | viability, T/C [15] [%] | also measured
CCN(c1cc(-c2ccc(CN3CCOCC3)cc2)cc(C(=O)NCc2c(C)cc(C)[nH]c2=O)c1C)C1CCOCC1 + NC1CC1c1ccc(-c2cccc(O)c2)cc1 | 603 | 650 | 770 | 758 | 499 | 116 | 107 | 109 | 74 | 120 | 121 | 113 | 77 | 123 | 124 | 120 | 89.2 | 126 | 121 | 122 | viability, T/C (second compound 0.1 µM, first compound 0.949 µM): 34.4%; viability, T/C (second compound 0.1 µM, first compound 3 µM): 11.4%; viability, T/C (second compound 0.316 µM, first compound 0.949 µM): 37.5%; viability, T/C (second compound 0.316 µM, first compound 3 µM): 11.9%; viability, T/C (second compound 1 µM, first compound 0.949 µM): 42%; viability, T/C (second compound 1 µM, first compound 3 µM): 14%; viability, T/C [16]: 89.1%; viability, T/C (second compound 3.16 µM, first compound 0.949 µM): 41.1%; viability, T/C (second compound 3.16 µM, first compound 3 µM): 14.3%; viability, T/C [17]: 107%; viability, T/C [18]: 102%; viability, T/C [19]: 107%; viability, T/C [20]: 70.8%; viability, T/C (second compound 10 µM, first compound 0.949 µM): 23.8%; viability, T/C (second compound 10 µM, first compound 3 µM): 11.2%
Nc1ncn(C2CC(O)C(CO)S2)c(=O)n1 (stereo not given) + NC1CC1c1ccc(-c2cccc(O)c2)cc1 | 25 | 23.9 | 27.9 | 27.1 | 19.5 | 87.1 | 42.6 | 15.4 | 5.99 | 93 | 39 | 12.2 | 6.04 | 96.8 | 46.3 | 13.5 | 5.81 | 96.3 | 44.6 | 17.3 | viability, T/C (second compound 0.1 µM, first compound 0.000949 µM): 113%; viability, T/C (second compound 0.1 µM, first compound 0.003 µM): 112%; viability, T/C (second compound 0.316 µM, first compound 0.000949 µM): 112%; viability, T/C (second compound 0.316 µM, first compound 0.003 µM): 106%; viability, T/C (second compound 1 µM, first compound 0.000949 µM): 117%; viability, T/C (second compound 1 µM, first compound 0.003 µM): 107%; viability, T/C (second compound 3.16 µM, first compound 0.000949 µM): 115%; viability, T/C (second compound 3.16 µM, first compound 0.003 µM): 115%; viability, T/C [16]: 6.89%; viability, T/C (second compound 10 µM, first compound 0.000949 µM): 87.2%; viability, T/C (second compound 10 µM, first compound 0.003 µM): 81.6%; viability, T/C [17]: 75.4%; viability, T/C [18]: 34.5%; viability, T/C [19]: 14.5%; viability, T/C [20]: 5.54%
